Assays:
[1] = Cytotoxicity; type: cell-based
Text: (§1) TABLE 3 Cytotoxicity of AB-452 against cells derived from various tissues | column: AB-452 CC50 (μM)

[2] = system: HBV RNA poly(A) tails; assay: HBV sRNA poly(A) tail NGS in HepG2-NTCP WT and KO clones
[3] = in vitro; type: cell-based; details: human
Text: as §1

[4] = system: HCMV; assay: Antiviral selectivity panel, CPE in MRC-5 cells; type: cell-based, human cytomegalovirus; details: Human betaherpesvirus 5, MRC5; MRC-5, CPE
[5] = system: RSV; assay: Antiviral selectivity panel, CPE in HEp2 cells; type: cell-based; details: human respiratory syncytial virus, HEp-2
[6] = system: HBV; assay: HBsAg inhibition in PLC/PRF/5 cells; type: cell-based; details: Hepatitis B virus
Protocol: AB-452 and RG7834 both belong to the dihydroquinolizinones chemical class. The antiviral activities of AB-452 and its diastereomer ARB-169451 were evaluated using multiple in vitro HBV replication models, including HepG2.2.15 cells (which constitutively express HBV through the integrated viral genome), PLC/PRF/5 cells (a patient-derived hepatocellular carcinoma cell line only expressing HBsAg), and HBV-infected HepG2-NTCP cells or primary human hepatocytes (PHHs) in which viral replication was dependent on cccDNA transcription (Table 1).
HepG2.2.15, HepAD38, and PLC/PRF/5 cells were cultured in Dulbecco’s modified Eagle medium (DMEM)/F12 medium (Corning, NY, USA), supplemented with 10% fetal bovine serum (Gemini, CA, USA), 100 U/ml penicillin, and 100 μg/ml streptomycin. Huh-7 cells (Creative Bioarray, NY, USA) were cultured in RPMI 1640 medium (Basel, Switzerland) containing 10% fetal bovine serum, 100 U/ml penicillin, and 100 μg/ml streptomycin. HepG2-hNTCP-C4 cells were cultured in DMEM medium (Gibco, MA, USA) containing 10% fetal bovine serum and 10 mM HEPES (Gibco).

[7] = system: panel of 10 different RNA and DNA viruses; assay: Antiviral selectivity panel (summary statement); type: cell-based; details: read-out: EC50 against a panel of 10 different RNA and DNA viruses
Protocol: HepG2.2.15 (30,000 cells/well) were plated in 96-well collagen-treated plates and incubated at 37°C. Compounds were half-log serially diluted and added in duplicate to 96-well microtiter plates. The plates were incubated for a total duration of 6 days, after which the culture medium was removed for the HBsAg and HBeAg CLIA assays (AutoBio Diagnostics Co., China) performed according to the manufacturer’s instructions. Secreted HBV DNA was extracted (Realtime Ready cell lysis kit; Roche, Mannheim, Germany) and quantified in a qPCR assay (LightCycler 480 SYBR green I master mix; Roche) with the 5′-[…]-3′ (sense) and 5′-[…]-3′ (antisense) primers using the PCR conditions of denaturing at 95°C for 5 min followed by 40 cycles of amplification at 95°C for 15 s and 60°C for 30 s. Antiviral selectivity studies against a panel of different DNA and RNA viruses were performed at ImQuest BioSicences (Frederick, MD, USA). Briefly, test compounds were evaluated using 6 doses, including the highest concentration of 30 μM and five serial half-logarithmic dilutions in triplicate for the antiviral assays.

## COCCCOc1cc2c(nc1OC)-c1cc(=O)c(C(=O)O)cn1[C@H](C(C)C)C2 [AB-452]
[1]; African green monkey, Vero cells (kidney)
  CC50: > 30 µM
[1]; HEp2, human epithelial cells
  CC50: > 30 µM
[1]; HeLa, human cervical cancer cells
  CC50: > 30 µM
[1]; cattle (bovine), MDBK cells (kidney)
  CC50: > 30 µM
[1]; hamster, BHK21 cells (kidney)
  CC50: > 30 µM
[1]; human, CEM-SS cells (T lymphoblast)
  CC50: > 30 µM
[1]; human, MRC5 cells (lung fibroblasts)
  CC50: > 30 µM
[2]; WT and P7_KO cells, untreated >136 bp
  poly(A) tail length after treatment: ~60 bp
[2]; WT and P7_KO cells, untreated ∼50%
  guanylation frequency of sRNA after treatment: ~10%
[2]; Z14_KO and PAPD5/7_DKO cells, with and without AB-452
  guanosine incorporation: ~10%
[3]
  CC50: > 30 µM
[4]
  EC50: > 30 µM
[5]
  EC50: > 30 µM
[6]
  EC50: 0.0023 ± 0.00036 µM
[7]
  EC50: > 30 µM

Source: publication PMC8387043, “Host Poly(A) Polymerases PAPD5 and PAPD7 Provide Two Layers of Protection That Ensure the Integrity and Stability of Hepatitis B Virus RNA” (Journal of Virology, 2021)
